We go through 21 compounds from US10913736B2 (UNIVERSITY OF WASHINGTON, priority 2014, dated 2021).

Where “and” joins values, the source holds several entries; their conditions need not be identical. Equal values may be shown once. Read-outs that look alike come from different tables or passages of the source.

One experiment has as its target MetRS (T. brucei) (Trypanosoma brucei brucei, UniProt Q38C91). Put plainly: MetRS (T. brucei) ATP depletion assay using Kinase-Glo. The format is biochemical.
In another experiment the test system is T. brucei. As to the kind of experiment: Growth inhibition assay of T. brucei cell cultures (Alamar Blue, 48 h). The format is cell-based. In general terms: The colour change of resazurin is a common sign of viable cells or microbes.
For a further experiment, the system named is T. cruzi. Put plainly: T. cruzi growth inhibition EC50. The class given is cell-based. The note with it: Trypanosoma cruzi; read-out: C) T. cruzi EC50.
For the next experiment, the target named is MetRS (S. aureus) (Staphylococcus aureus, UniProt Q5HII6). As to the kind of experiment: biochemical. The note with it: ATP depletion, Kinase-Glo; read-out: H) MetRS (S. aureus) ATP depletion assay using Kinase-Glo with modified cpd dilution method, IC50. A general note: Kinase-Glo measures the ATP left after a reaction by luminescence.
Chain of MetRS (S. aureus) (Q5HII6 whole entry): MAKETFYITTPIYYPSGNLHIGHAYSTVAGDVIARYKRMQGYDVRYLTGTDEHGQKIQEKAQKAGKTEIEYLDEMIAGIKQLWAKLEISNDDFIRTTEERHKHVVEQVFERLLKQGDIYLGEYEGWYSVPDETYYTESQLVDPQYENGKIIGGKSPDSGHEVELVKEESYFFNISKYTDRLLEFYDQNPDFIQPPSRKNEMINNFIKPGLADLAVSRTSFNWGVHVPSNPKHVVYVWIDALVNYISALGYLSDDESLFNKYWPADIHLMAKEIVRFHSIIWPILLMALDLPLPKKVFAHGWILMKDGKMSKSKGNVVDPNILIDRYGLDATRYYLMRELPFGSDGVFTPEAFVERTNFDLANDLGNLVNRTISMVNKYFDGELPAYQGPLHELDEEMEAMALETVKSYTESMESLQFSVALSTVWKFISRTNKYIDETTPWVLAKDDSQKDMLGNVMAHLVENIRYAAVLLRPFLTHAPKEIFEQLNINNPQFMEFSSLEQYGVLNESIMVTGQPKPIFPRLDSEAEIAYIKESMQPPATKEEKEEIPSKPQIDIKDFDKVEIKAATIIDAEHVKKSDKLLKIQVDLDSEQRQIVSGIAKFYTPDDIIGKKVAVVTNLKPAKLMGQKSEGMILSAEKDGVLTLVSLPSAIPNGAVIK
Where [1] appears, read: Trypanosoma brucei; read-out: B) T. brucei EC50.

Chain of MetRS (T. brucei) (Q38C91 entry or part of it): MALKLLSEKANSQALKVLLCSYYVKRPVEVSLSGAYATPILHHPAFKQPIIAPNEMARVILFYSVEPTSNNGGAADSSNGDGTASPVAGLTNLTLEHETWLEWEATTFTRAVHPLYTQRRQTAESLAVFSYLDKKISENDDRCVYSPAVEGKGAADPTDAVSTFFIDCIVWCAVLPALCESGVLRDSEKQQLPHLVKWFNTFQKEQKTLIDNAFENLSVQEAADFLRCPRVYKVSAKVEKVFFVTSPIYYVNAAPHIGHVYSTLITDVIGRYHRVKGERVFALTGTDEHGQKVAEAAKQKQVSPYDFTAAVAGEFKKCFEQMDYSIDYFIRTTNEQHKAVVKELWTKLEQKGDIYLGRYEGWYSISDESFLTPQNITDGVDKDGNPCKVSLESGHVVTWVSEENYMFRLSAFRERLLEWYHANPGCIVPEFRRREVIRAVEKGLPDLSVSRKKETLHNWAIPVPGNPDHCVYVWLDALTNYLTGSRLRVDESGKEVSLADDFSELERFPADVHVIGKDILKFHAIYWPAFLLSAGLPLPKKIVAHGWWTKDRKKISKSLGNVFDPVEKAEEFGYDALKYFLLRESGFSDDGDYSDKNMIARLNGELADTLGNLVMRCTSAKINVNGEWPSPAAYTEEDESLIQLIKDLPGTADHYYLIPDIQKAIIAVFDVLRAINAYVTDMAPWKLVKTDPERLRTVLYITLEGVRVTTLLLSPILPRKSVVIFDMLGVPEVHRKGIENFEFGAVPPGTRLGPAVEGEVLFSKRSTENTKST

Broadly, the IC50 is the concentration needed to halve the response being measured. As usually defined, the EC50 is the midpoint of the concentration-response curve. For the compound `Cc1ccc2[nH]c(NCCCNCc3cc(Cl)cc(Cl)c3)nc2n1` [Compound 1599, N1-(3,5-dichlorobenzyl)-N3-(5-methyl-1H-imidazo[4,5-b]pyridin-2-yl)propane-1,3-diamine], the IC50 on MetRS (T. brucei) is 45 nM and 59 nM. In addition, the EC50 was 662 nM with T. brucei (setting [1]) and 2910 nM with T. cruzi.

On MetRS (T. brucei), `N#Cc1c(NCCCNCc2cc(Cl)cc(Cl)c2)[nH]c2cccnc12` [Compound 1627, 2-(3-(3,5-dichlorobenzylamino)propylamino)-1H-pyrrolo[3,2-b]pyridine-3-carbonitrile] returned an IC50 of 61 nM. Moreover, the EC50 in the experiment with T. brucei (setting [1]) was above 9.08 nM; with T. brucei (read-out: B) T. brucei EC50), 4.6 nM; with T. cruzi, 623 nM.

The compound `OC(CNCc1cc(Cl)cc(Cl)c1)CNc1nc2cccnc2[nH]1` (stereo not shown) [Compound 1634, 1-((1H-imidazo[4,5-b]pyridin-2-yl)amino)-3-((3,5-dichlorobenzyl)amino)propan-2-ol] showed an IC50 against MetRS (T. brucei) of 133 nM. In addition, the EC50 in the experiment with T. brucei (setting [1]) stood at 121 nM; with T. cruzi it was 9760 nM.

`O=C1N[C@@H](Cc2ccc(Cl)cc2Cl)C(=O)N1Cc1nc2ccccc2[nH]1` [Compound 1754, (S)-3-((1H-benzo[d]imidazol-2-yl)methyl)-5-(2,4-dichlorobenzyl)imidazolidine-2,4-dione] came in with an IC50 against MetRS (T. brucei) above 10000 nM. The EC50 is 5890 nM with T. brucei (setting [1]) and above 5000 nM with T. cruzi.

Take `CC(=O)N(Cc1cc(Cl)cc(Cl)c1)C1CCCC(c2nc3nc(F)ccc3[nH]2)C1` (stereo not shown) [Compound 1801, N-(3,5-dichlorobenzyl)-N-(3-(5-fluoro-1H-imidazo[4,5-b]pyridin-2-yl)cyclohexyl)acetamide]: the IC50 against MetRS (T. brucei) was 533 nM and 569 nM. For the same compound, the EC50 in the experiment with T. cruzi is 252 nM.

With `CC(=O)N(CCNc1nc2nc(F)ccc2[nH]1)Cc1cc(Cl)cc(Cl)c1` [Compound 1897, N-(3,5-dichlorobenzyl)-N-(2-((5-fluoro-1H-imidazo[4,5-b]pyridin-2-yl)amino)ethyl) acetamide], the IC50 on MetRS (S. aureus) was found to be 606 nM; on MetRS (T. brucei) it was 16 nM. Further, the half-maximal effective concentration (EC50) with T. brucei (setting [1]) was 653 nM.

Turning to `Clc1ccc2[nH]c(N3CCC[C@H](NCc4cc(Br)cc(Br)c4)C3)nc2n1` [Compound 1908, (S)-1-(5-chloro-1H-imidazo[4,5-b]pyridin-2-yl)-N-(3,5-dibromobenzyl) piperidin-3-amine], the IC50 came to 155 nM on MetRS (S. aureus) and 15 nM at MetRS (T. brucei). Also, in the experiment with T. brucei (setting [1]), the EC50 is 85.2 nM.

As to `CC(=O)N(CCN(C)c1nc2nc(F)ccc2[nH]1)Cc1cc(Cl)cc(Cl)c1` [Compound 1914, N-[(3,5-dichlorophenyl)methyl]-N-[2-({5-fluoro-1H-imidazo[4,5-b]pyridin-2-yl}(methyl)amino)ethyl]acetamide], the IC50 was 303 nM on MetRS (S. aureus) and 18 nM against MetRS (T. brucei). Moreover, in the experiment on T. brucei (setting [1]), the EC50 was determined as 252 nM.

As for `Oc1c(Cl)cc(Cl)cc1CN[C@H]1CCCN(c2nc3nc(Cl)ccc3[nH]2)C1` [Compound 1921], the IC50 at MetRS (S. aureus) was 1570 nM; on MetRS (T. brucei), 25 nM. Moreover, the EC50 with T. brucei (setting [1]) was determined as 241 nM.

Regarding `Clc1cc(Cl)cc(NC[C@@H]2CCCN(c3nc4nc(Cl)ccc4[nH]3)C2)c1` [Compound 1923, (S)-3,5-dichloro-N-((1-(5-chloro-1H-imidazo[4,5-b]pyridin-2-yl)piperidin-3-yl)methyl)aniline], the figures for the IC50 at MetRS (S. aureus) and on MetRS (T. brucei) were 504 nM and 32 nM, respectively. In addition, the EC50 with T. brucei (setting [1]) was determined as 566 nM.

Turning to `CCOc1c(Cl)cc(Cl)cc1CNCCN(C)c1nc2nc(Cl)ccc2[nH]1` [Compound 1925, 5-chloro-N-(2-{[(3,5-dichloro-2-ethoxyphenyl)methyl]amino}ethyl)-N-methyl-3H-imidazo[4,5-b]pyridin-2-amine], the results for the IC50 at MetRS (S. aureus) and against MetRS (T. brucei) were 266 nM and 15 nM, respectively. Besides, the EC50 in the experiment with T. brucei (setting [1]) is 314 nM.

Regarding `CCC(=O)N(CCN(C)c1nc2nc(Cl)ccc2[nH]1)Cc1cc(Cl)cc(Cl)c1` [Compound 1942, N-(3,5-dichlorobenzyl)-N-(2-(5-chloro-N-methyl-1H-imidazo[4,5-b]pyridin-2-ylamino)ethyl)propionamide], the IC50 at MetRS (S. aureus) is 104 nM; at MetRS (T. brucei), 20 nM. For the same compound, the EC50 in the experiment with T. brucei (setting [1]) turned out to be 145 nM.

On to `Fc1ccc2nc(NCCCNc3cc(Cl)cc(Cl)c3)[nH]c2n1` [Compound 1954, 3,5-dichloro-N-[3-({5-fluoro-3H-imidazo[4,5-b]pyridin-2-yl}amino)propyl]aniline], for which the IC50 is 928 nM at MetRS (S. aureus) and 61 nM against MetRS (T. brucei). The figures for the EC50 in the experiment with T. brucei (setting [1]) and with T. brucei (read-out: B) T. brucei EC50) were 369 nM and 565 nM, respectively.

As to `CN(CCN(Cc1cc(Cl)cc(Cl)c1)C(=O)CCN)c1nc2nc(Cl)ccc2[nH]1` [Compound 1958, 3-amino-N-[2-({5-chloro-1H-imidazo[4,5-b]pyridin-2-yl}(methyl)amino)ethyl]-N-[(3,5-dichlorophenyl)methyl]propanamide], the values for the IC50 at MetRS (S. aureus) and against MetRS (T. brucei) were 381 nM and 13 nM, respectively. Also, the EC50 in the experiment with T. brucei (setting [1]) is 62.4 nM; with T. brucei (read-out: B) T. brucei EC50) it was 33.1 nM.

Turning to `CC(=O)N(CCCNc1nc2ccc(F)nc2[nH]1)Cc1cc(Cl)cc(Cl)c1` [Compound 1959, N-(3,5-dichlorobenzyl)-N-(3-(5-fluoro-3H-imidazo[4,5-b]pyridin-2-ylamino)propyl)acetamide], the IC50 on MetRS (S. aureus) was 12 nM; at MetRS (T. brucei), 16 nM. The figures for the EC50 with T. brucei (setting [1]) and in the experiment on T. brucei (read-out: B) T. brucei EC50) were 39.3 nM and 51.1 nM, respectively.

Turning to `O=c1[nH]c(Cc2ccc(Cl)cc2Cl)cn1Cc1nc2ccc(F)nc2[nH]1` [Compound 1962, 5-(2,4-dichlorobenzyl)-3-((5-fluoro-3H-imidazo[4,5-b]pyridin-2-yl)methyl)-1H-imidazol-2(3H)-one], the IC50 on MetRS (S. aureus) was 17 nM; on MetRS (T. brucei) it was 19 nM. Also, the EC50 in the experiment with T. brucei (setting [1]) is 12.9 nM.

As for `COC(=O)N(CCN(C)c1nc2nc(Cl)ccc2[nH]1)Cc1cc(Cl)cc(Cl)c1` [Compound 1963, methyl 3,5-dichlorobenzyl2-(5-chloro-N-methyl-1H-imidazo[4,5-b]pyridin-2-ylamino)ethylcarbamate], the IC50 turned out to be 348 nM on MetRS (S. aureus) and 21 nM against MetRS (T. brucei). Moreover, the EC50 in the experiment on T. brucei (setting [1]) was determined as 97.4 nM.

`Clc1cc(Cl)cc(CNc2cccc(-c3nc4ccc(Cl)nc4[nH]3)c2)c1` [Compound 1966, 3-{5-chloro-3H-imidazo[4,5-b]pyridin-2-yl}-N-[(3,5-dichlorophenyl)methyl]amine]: the IC50 at MetRS (S. aureus) was 5730 nM; against MetRS (T. brucei), 72 nM. Moreover, the EC50 in the experiment on T. brucei (setting [1]) was 1030 nM.

As to `Clc1cc(Cl)cc(NCCCNc2nc3ccc(Cl)nc3[nH]2)c1` [Compound 1967], the values for the IC50 on MetRS (S. aureus) and against MetRS (T. brucei) were above 1000 nM and 88 nM, respectively. Besides, in the experiment on T. brucei (setting [1]), the EC50 stood at 2300 nM.

For the compound `O=C(CNc1nc2ccc(Cl)nc2[nH]1)NCc1cc(Cl)cc(Cl)c1` [Compound 1970, 2-((5-chloro-3H-imidazo[4,5-b]pyridin-2-yl)amino)-N-(3,5-dichlorobenzyl)acetamide], the IC50 on MetRS (S. aureus) amounted to 1080 nM; on MetRS (T. brucei) it was 69 nM. In the experiment with T. brucei (setting [1]), the EC50 was found to be 2980 nM.

As to `CN(CCN(Cc1cc(Cl)cc(Cl)c1)C(=O)CO)c1nc2ccc(Cl)nc2[nH]1` [Compound 1971, N-(3,5-dichlorobenzyl)-N-(2-(5-chloro-N-methyl-1H-imidazo[4,5-b]pyridin-2-ylamino)ethyl)-2-hydroxyacetamide], the IC50 on MetRS (S. aureus) amounted to 85 nM; against MetRS (T. brucei), 13 nM. The values for the EC50 in the experiment with T. brucei (setting [1]) and with T. brucei (read-out: B) T. brucei EC50) were 62.3 nM and 40.4 nM, respectively.
